From US12213970B2, “Pyridinyl sulfonamide derivatives, pharmaceutical compositions and uses thereof” (Boehringer Ingelheim International GmbH, priority 2018, dated 2025)
Structures can show the parent of a compound that is named as a salt. Where two headings read alike, the source gives them in different places.

Legend:
MAO-A = target: T1, MAO-A (Homo sapiens, UniProt P21397); assay: MAO-A biochemical assay (MAO-Glo)
T1 construct: purchased Sigma-Aldrich M7316
T1 sequence (P21397 1-527): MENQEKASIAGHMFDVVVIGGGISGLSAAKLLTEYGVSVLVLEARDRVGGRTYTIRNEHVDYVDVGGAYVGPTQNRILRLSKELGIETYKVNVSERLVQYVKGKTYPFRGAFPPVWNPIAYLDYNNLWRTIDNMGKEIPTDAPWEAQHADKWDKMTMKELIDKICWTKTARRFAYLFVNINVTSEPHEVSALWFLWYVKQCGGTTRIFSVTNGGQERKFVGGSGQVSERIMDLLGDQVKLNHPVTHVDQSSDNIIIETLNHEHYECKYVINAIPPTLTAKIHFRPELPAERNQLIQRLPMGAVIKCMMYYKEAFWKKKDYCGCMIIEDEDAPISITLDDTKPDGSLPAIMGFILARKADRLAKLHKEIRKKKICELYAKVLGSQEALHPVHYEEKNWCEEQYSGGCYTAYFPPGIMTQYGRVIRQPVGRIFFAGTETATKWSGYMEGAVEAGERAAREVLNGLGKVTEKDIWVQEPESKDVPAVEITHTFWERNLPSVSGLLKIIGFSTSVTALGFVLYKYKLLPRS
Description: The MAO-Glo™ Assay (commercially available from PROMEGA, #V1402) provides a sensitive method for the measurement of monoamine oxidase (MAO) activity (Valley, M. P. et al., 2006, Anal. Biochem. 359: 238-246) from a variety of tissues, biofluids or recombinant expressed or purified enzymes. As substrate a derivate of the beetle luciferin ((4S)-4,5-dihydro-2-(6-hydroxybenzothiazolyl)-4-thiazole-carboxylic acid) is used, which is oxidized at a primary amine moiety. After a spontaneous elimination and a catalyzed esterase reaction, the turnover of luciferin by the luciferase is recorded as a signal of MAO-A activity.
An aliquot of 3 μL of the compound dilution is added to a 384 well plate (Optiplate, PS, flat bottom F, black, PERKIN ELMER, #6007270) in a DMSO concentration of 1.025%.
A MAO-A enzyme aliquot (M7316, Sigma-Aldrich) is thawed on ice, diluted in reaction buffer to 1.25 mU/μL and added in a volume of 5 μL to the wells. After incubation for 20 minutes at 37° C., 2 μL of MAO substrate (dissolved in DMSO at 16 mM, diluted to 20 μM in assay buffer to obtain a final assay concentration of 4 μM) is added, mixed, and the mixture further incubated for 60 minutes at 37° C.
The turnover of the substrate is determined by the addition of 10 μL of the Detection Reagent mix which was generated by the addition of reconstitution buffer with esterase (PROMEGA, #V1402) to the luciferin detection reagent (PROMEGA, #V1402). After an incubation period of 20 minutes at 37° C., the luminescent signal is measured with a […], e.g. Envision 2104 Multilabel Reader (PERKIN ELMER).

AOC1 = target: T2, AOC1 (Homo sapiens, UniProt P19801); assay: AOC1 biochemical assay (Amplex Red)
T2 construct: purchased R&D Systems 8297-AO-010
T2 sequence (P19801 20-751): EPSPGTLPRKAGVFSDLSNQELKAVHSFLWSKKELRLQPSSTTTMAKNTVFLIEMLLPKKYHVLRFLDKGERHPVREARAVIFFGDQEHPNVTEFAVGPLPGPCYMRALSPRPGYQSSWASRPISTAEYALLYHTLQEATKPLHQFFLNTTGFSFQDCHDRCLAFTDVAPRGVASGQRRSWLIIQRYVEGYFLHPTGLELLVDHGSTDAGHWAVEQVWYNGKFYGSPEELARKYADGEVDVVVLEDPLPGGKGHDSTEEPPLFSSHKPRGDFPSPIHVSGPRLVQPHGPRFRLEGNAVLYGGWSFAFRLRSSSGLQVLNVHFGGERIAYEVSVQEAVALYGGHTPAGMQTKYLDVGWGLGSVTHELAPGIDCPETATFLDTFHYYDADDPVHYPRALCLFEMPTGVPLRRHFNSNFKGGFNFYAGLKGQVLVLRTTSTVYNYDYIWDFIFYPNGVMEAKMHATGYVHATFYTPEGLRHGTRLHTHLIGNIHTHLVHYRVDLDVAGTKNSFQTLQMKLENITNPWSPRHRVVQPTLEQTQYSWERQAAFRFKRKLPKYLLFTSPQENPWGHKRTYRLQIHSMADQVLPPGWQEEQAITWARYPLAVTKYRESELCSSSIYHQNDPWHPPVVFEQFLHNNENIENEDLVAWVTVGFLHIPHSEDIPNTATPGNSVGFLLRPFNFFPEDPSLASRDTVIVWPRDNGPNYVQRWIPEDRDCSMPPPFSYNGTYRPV
Experimental: The Amplex® Red Assay (available from Thermo Fisher Scientific) provides a sensitive method for the detection of H2O2 generated during enzymatic reactions like the amine oxidation catalyzed by AOC1. The assay reagent is a colorless substrate (N-acetyl-3,7-dihydroxyphenoxazine) that reacts in a 1:1 stoichiometry with hydrogen peroxide (H2O2) to produce the fluorescent dye resorufin (7-hydroxyphenoxazin-3-one, excitation/emission maxima=570/585 nm).
An aliquot of 3 μL of the compound dilution is added to a 384 well plate (Optiplate, PS, flat bottom F, black, PERKIN ELMER, #6007270) in a DMSO concentration of 6.6%.
An AOC1 enzyme aliquot (#8297-AO-010, R&D Systems) is thawed on ice, diluted in reaction buffer and added in a volume of 7 μL to the wells to give a final assay concentration of 1 ng/well. After incubation of inhibitor and enzyme for 30 minutes at 37° C., the enzymatic reaction is started with the addition of 10 μL of Amplex® Red reaction mix (final assay concentration: 100 mM sodiumphosphate, 120 μM Amplex® Red reagent (#A22177 Molecular Probes), 1.5 U/mL Horseradish Peroxidase (#P8375 Sigma-Aldrich), 200 μM putrescine (#P7505 Sigma-Alrdich), 0.05% Pluronic F-127 (#P3000MP Sigma-Aldrich), pH 7.4, 37° C.).
After an incubation for 30 minutes at 37° C. the turnover of the substrate is determined directly (or after the addition of an excess of an amine-oxidase inhibitor) with a fluorescence reader (Ex 540 nm/Em 590 nm) like Envision 2104 Multilabel Reader (PERKIN ELMER).

[1] = comparison table, read-out: IC50 MAO-A
[2] = comparison table, read-out: IC50 AOC1

Row | SMILES | IC50 (MAO-A; IC50, read-out: MAO-A) | IC50 (AOC1; read-out: AOC1 IC50) | also measured
1 | NC/C(=C/F)COc1cnc(N2CC[C@H](O)C2)nc1 [Z isomer of example 6 of WO 2018/027892, reference compound] | – | – | IC50 (MAO-A; [1]): 56.3 µM; IC50 (AOC1; read-out: IC50 AOC1): 0.07 µM
2 | COC(=O)C1(C)CCN(S(=O)(=O)c2ccc(OC/C(=C\F)CN)nc2)CC1 [Example 36] | 13.5 µM | 1.38 µM | –
3 | COC1CN(S(=O)(=O)c2ccc(OC/C(=C\F)CN)cc2)C1 [Reference compound A, reference compound] | – | – | IC50 (MAO-A; [1]): 2.35 µM; IC50 (AOC1; [2]): 1.75 µM
4 | CCNC(=O)C1(C)CCN(S(=O)(=O)c2ccc(OC/C(=C\F)CN)nc2)CC1 [Example 23] | > 50 µM | > 50 µM | –
5 | COC(=O)[C@H]1[C@@H]2CN(S(=O)(=O)c3ccc(OC/C(=C\F)CN)nc3)C[C@@H]21 [Example 35, trans-3-[6-((Z)-2-Aminomethyl-3-fluoro-allyloxy)-pyridine-3-sulfonyl]-3-aza-bicyclo[3.1.0]hexane-6-carboxylic acid methyl ester trifluoroacetate] | > 50 µM | 1.84 µM | –
6 | CC(=O)NC1CCN(S(=O)(=O)c2ccc(OC/C(=C\F)CN)nc2)C1 (centres unmarked) [Example 12] | > 50 µM | 3.18 µM | –
7 | NC/C(=C/F)COc1ccc(S(=O)(=O)N2CC[C@H](C(=O)N3CCOCC3)C2)cn1 [Example 21] | > 50 µM | 4.09 µM | –
8 | NC/C(=C/F)COc1cnc(N2CCC(O)CC2)nc1 [reference compound] | – | – | IC50 (MAO-A; [1]): 54.9 µM; IC50 (AOC1; [2]): 0.066 µM
9 | CCNC(=O)CC1CCN(S(=O)(=O)c2ccc(OC/C(=C\F)CN)nc2)CC1 [Example 30] | 21.4 µM | 8.9 µM | –
10 | NC/C(=C/F)COc1ccc(S(=O)(=O)N2CCC(CC(=O)N3CC(O)C3)CC2)cn1 [Example 55] | > 50 µM | 27.1 µM | –
11 | NC/C(=C/F)COc1ccc(S(=O)(=O)N2CCC(CC(N)=O)CC2)cn1 [Example 50] | 29.6 µM | 5.31 µM | –
12 | CNC(=O)[C@@H]1CCN(S(=O)(=O)c2ccc(OC/C(=C\F)CN)nc2)C1 [Example 14] | > 50 µM | 2.15 µM | –
13 | CC1(O)CN(S(=O)(=O)c2ccc(OC/C(=C\F)CN)nc2)C1 [Example 16] | 12.8 µM | 0.441 µM | –
14 | COC1CCN(S(=O)(=O)c2ccc(OC/C(=C\F)CN)nc2)CC1 [Example 40] | > 50 µM | 0.781 µM | –
15 | COC(=O)C1CCN(S(=O)(=O)c2ccc(OC/C(=C\F)CN)nc2)CC1 [Example 34] | 15.2 µM | 2.4 µM | –
16 | NC/C(=C/F)COc1ccc(S(=O)(=O)N2CC[C@H](C(N)=O)C2)cn1 [Example 39] | > 50 µM | 0.909 µM | –
17 | CN1CCN(C2CCN(S(=O)(=O)c3ccc(OC/C(=C\F)CN)nc3)CC2)C1=O [Example 1, 1-{1-[6-((Z)-2-Aminomethyl-3-fluoro-allyloxy)-pyridine-3-sulfonyl]-piperidine-4-yl}-3-methyl-imidazolidin-2-one trifluoroacetate] | > 50 µM | 15.3 µM | –
18 | NC/C(=C/F)COc1ccc(S(=O)(=O)N2CC[C@H](O)C2)cn1 [Example 43, (S)-1-[6-(Z)-2-Aminomethyl-3-fluoro-allyloxy]-pyridine-3-sulfonyl]-pyrrolidin-3-ol trifluoroacetate] | 49.1 µM | – | IC50 (MAO-A; [1]): 49.1 µM; IC50 (AOC1; read-out: IC50 AOC1): 0.964 µM; factor less active on AOC1 than the comparison compound (AOC1; versus the Z isomer of example 6 of WO 2018/027892): 14
19 | COCCNC(=O)CC1CCN(S(=O)(=O)c2ccc(OC/C(=C\F)CN)nc2)CC1 [Example 54] | 26.9 µM | 10.5 µM | –
20 | CN(C)C(=O)C1CCN(S(=O)(=O)c2ccc(OC/C(=C\F)CN)nc2)CC1 [Example 17] | > 50 µM | 6.25 µM | –
21 | NC/C(=C/F)COc1ccc(S(=O)(=O)N2CC(C3CCN(C(=O)C4CC4)CC3)C2)cn1 [Example 26] | > 50 µM | 0.911 µM | –
22 | CC1(O)CCN(S(=O)(=O)c2ccc(OC/C(=C\F)CN)nc2)CC1 [Example 41] | > 50 µM | 0.133 µM | –
23 | CNC(=O)[C@H]1CCN(S(=O)(=O)c2ccc(OC/C(=C\F)CN)nc2)C1 [Example 11] | > 50 µM | 2.55 µM | –
24 | CC1(C(=O)NC2CCOCC2)CCN(S(=O)(=O)c2ccc(OC/C(=C\F)CN)nc2)CC1 [Example 48, 1-[6-((Z)-2-Aminomethyl-3-fluoro-allyloxy)-pyridine-3-sulfonyl]-4-methyl-piperidine-4-carboxylic acid (tetrahydropyran-4-yl)-amide trifluoroacetate] | > 50 µM | 13 µM | –
